For 24 compounds, IC50 results are on record in patent US20240368135A1 (VERTEX PHARMACEUTICALS INCORPORATED, priority 2021, published 2024).

Chain of human NaV 1.8 (Q9Y5Y9 126-399 limits assumed): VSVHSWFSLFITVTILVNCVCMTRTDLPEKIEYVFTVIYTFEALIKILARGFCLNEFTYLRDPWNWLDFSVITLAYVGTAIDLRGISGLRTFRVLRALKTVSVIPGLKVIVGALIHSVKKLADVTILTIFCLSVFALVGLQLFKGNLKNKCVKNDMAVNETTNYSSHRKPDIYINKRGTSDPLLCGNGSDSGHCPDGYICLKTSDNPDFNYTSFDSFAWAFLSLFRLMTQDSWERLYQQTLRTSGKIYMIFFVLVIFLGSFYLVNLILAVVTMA
Chain of human NaV 1.8 (Q9Y5Y9 660-890 limits assumed): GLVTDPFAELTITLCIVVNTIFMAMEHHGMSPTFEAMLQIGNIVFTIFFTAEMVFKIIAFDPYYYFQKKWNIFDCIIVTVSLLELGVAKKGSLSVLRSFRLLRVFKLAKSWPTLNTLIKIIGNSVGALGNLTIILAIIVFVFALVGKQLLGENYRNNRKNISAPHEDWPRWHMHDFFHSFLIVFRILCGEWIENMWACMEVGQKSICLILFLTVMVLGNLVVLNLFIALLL
Chain of human NaV 1.8 (Q9Y5Y9 1148-1722 limits assumed): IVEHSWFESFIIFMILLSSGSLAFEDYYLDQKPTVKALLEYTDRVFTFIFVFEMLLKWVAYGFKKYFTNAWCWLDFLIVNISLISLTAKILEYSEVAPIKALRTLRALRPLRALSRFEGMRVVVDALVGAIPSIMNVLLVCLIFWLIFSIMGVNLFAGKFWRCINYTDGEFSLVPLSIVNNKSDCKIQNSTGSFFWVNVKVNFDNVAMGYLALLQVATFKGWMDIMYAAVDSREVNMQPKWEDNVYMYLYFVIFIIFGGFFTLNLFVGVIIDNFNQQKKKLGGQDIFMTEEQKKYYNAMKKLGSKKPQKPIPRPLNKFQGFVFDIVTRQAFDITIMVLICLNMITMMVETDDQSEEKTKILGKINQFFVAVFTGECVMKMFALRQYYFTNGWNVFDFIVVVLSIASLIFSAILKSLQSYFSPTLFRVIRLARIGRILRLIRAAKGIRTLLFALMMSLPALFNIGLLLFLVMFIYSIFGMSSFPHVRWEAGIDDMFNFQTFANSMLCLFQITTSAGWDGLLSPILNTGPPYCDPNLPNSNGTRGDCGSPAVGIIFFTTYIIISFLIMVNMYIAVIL

The target of one assay is human NaV 1.8 (Homo sapiens, UniProt Q9Y5Y9). The experiment in a line: E-VIPR assay detecting and measuring NaV inhibition properties. The assay is classed as cell-based. The conditions noted are these: HEK cells expressing truncated human NaV 1.8; in the presence of human serum (compound numbers followed by *); read-out: IC50 in the E-VIPR Assay, performed in the presence of human serum. Summed up:
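Membrane potential was followed by coumarin/oxonol FRET during electrical field stimulation of matrigel-seeded HEK cells carrying truncated human NaV1.8 plus KIR2.1. Dosing used 11 points, 3-fold steps, top 300 nM final, 0.625% DMSO, with or without 25% human serum.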
As for `COc1c(C2C(C(=O)Nc3ccnc(C(O)CO)c3)OC(C)(C)C2C)ccc(F)c1F` (single isomer, unassigned) [Compound 722, rel-3-(3,4-difluoro-2-methoxyphenyl)-N-(2-(1,2-dihydroxyethyl)pyridin-4-yl)-4,5,5-trimethyltetrahydrofuran-2-carboxamide], the IC50 is not below 1000 nM.
Same read-out and setting: the value for `COc1c([C@@H]2[C@@H](C(=O)Nc3cc(C(O)CO)ncc3F)O[C@](C)(C(F)(F)F)[C@@H]2C)ccc(F)c1C` (single isomer, unassigned) [Compound 139] was not below 1000 nM; that for `COc1c([C@@H]2C[C@](C)(C(F)(F)F)O[C@H]2C(=O)Nc2ccnc(C(O)CO)c2)ccc(F)c1F` (single isomer, unassigned) [Compound 685] was 10 to 100 nM.

The assay is the same for the next values; noted with them: HEK cells expressing truncated human NaV 1.8; no human serum; read-out: IC50 in the E-VIPR Assay.
Turning to `COc1c([C@H]2[C@H](C(=O)Nc3ccc(C(N)=O)nc3)O[C@@](C)(C(F)(F)F)[C@H]2C)cccc1C(F)(F)F` (stereo in doubt) [Compound 156, rel-5-((2R,3S,4S,5R)-3-(2-methoxy-3-(trifluoromethyl)phenyl)-4,5-dimethyl-5-(trifluoromethyl)tetrahydrofuran-2-carboxamido)picolinamide], the concentration for half-maximal inhibition (IC50) was less than 10 nM.
Turning to `C[C@H]1[C@@H](c2ccc(F)c(F)c2OCCO)[C@H](C(=O)Nc2ccnn2C)O[C@@]1(C)C(F)(F)F` [Compound 547, (2R,3S,4S,5R)-3-(3,4-difluoro-2-(2-hydroxyethoxy)phenyl)-4,5-dimethyl-N-(1-methyl-1H-pyrazol-5-yl)-5-(trifluoromethyl)tetrahydrofuran-2-carboxamide], the IC50 lay within 100 to 1000 nM.
On the same count and under the same terms, the value for `COc1c([C@H]2[C@H](C(=O)Nc3ccnc(N4C(=O)CNC[C@H]4C)c3)O[C@@](C)(C(F)(F)F)[C@H]2C)ccc(F)c1F` [Compound 477, (2R,3S,4S,5R)-3-(3,4-difluoro-2-methoxyphenyl)-4,5-dimethyl-N-(2-((R)-2-methyl-6-oxopiperazin-1-yl)pyridin-4-yl)-5-(trifluoromethyl)tetrahydrofuran-2-carboxamide] was 10 to 100 nM.
The same measure, in the same setting: the value for `COc1c([C@H]2[C@H](C(=O)Nc3ccnc(C4COCCN4)c3)O[C@@](C)(C(F)(F)F)[C@H]2C)ccc(F)c1F` (single isomer, unassigned) [Compound 342, rel-(2R*,3S*,4S*,5R*)-3-(3,4-difluoro-2-methoxyphenyl)-4,5-dimethyl-N-(2-(morpholin-3-yl)pyridin-4-yl)-5-(trifluoromethyl)-tetrahydrofuran-2-carboxamide] was 10 to 100 nM; that for `COc1c(C2C(C(=O)Nc3ccnc(S(=O)(=O)CCO)c3)OC(C)(C(F)(F)F)C2C)ccc(F)c1F` (stereo not drawn) [Compound 62, 3-(3,4-difluoro-2-methoxy-phenyl)-N-[2-(2-hydroxyethylsulfonyl)-4-pyridyl]-4,5-dimethyl-5-(trifluoromethyl)tetrahydrofuran-2-carboxamide] was less than 10 nM.
Same read-out and setting: the value for `COc1c([C@H]2[C@H](C(=O)Nc3ccc(C(N)=O)[n+]([O-])c3)O[C@@](C)(C(F)(F)F)[C@H]2C)ccc(F)c1F` [Compound 2, 2-carbamoyl-5-((2R,3S,4S,5R)-3-(3,4-difluoro-2-methoxyphenyl)-4,5-dimethyl-5-(trifluoromethyl)tetra hydrofuran-2-carboxamido)pyridine 1-oxide] was 10 to 100 nM.
On to `Cc1cc(NC(=O)[C@@H]2O[C@@](C)(C(F)(F)F)[C@@H](C)[C@H]2c2ccc(F)c(F)c2OCCO)ccn1` [Compound 560, (2R,3S,4S,5R)-3-(3,4-difluoro-2-(2-hydroxyethoxy)phenyl)-4,5-dimethyl-N-(2-methylpyridin-4-yl)-5-(trifluoromethyl)tetrahydrofuran-2-carboxamide], for which the IC50 is 10 to 100 nM.
Same read-out and setting: under `CNC(=O)CN(C)c1cc(NC(=O)[C@@H]2O[C@@](C)(C(F)(F)F)[C@@H](C)[C@H]2c2ccc(F)c(F)c2OC)ccn1` [Compound 487, (2R,3S,4S,5R)-3-(3,4-difluoro-2-methoxyphenyl)-4,5-dimethyl-N-(2-(methyl(2-(methylamino)-2-oxoethyl)amino)pyridin-4-yl)-5-(trifluoromethyl)tetrahydrofuran-2-carboxamide] stands less than 10 nM.
Still for that read-out and setting: the value for `Cc1oncc1NC(=O)[C@@H]1O[C@@](C)(C(F)(F)F)[C@@H](C)[C@H]1c1ccc(F)c(F)c1OCCO` [Compound 559, (2R,3S,4S,5R)-3-(3,4-difluoro-2-(2-hydroxyethoxy)phenyl)-4,5-dimethyl-N-(5-methylisoxazol-4-yl)-5-(trifluoromethyl)tetrahydrofuran-2-carboxamide] was 10 to 100 nM; that for `COc1c([C@H]2[C@H](C(=O)Nc3ccc(-n4cncn4)nc3)O[C@@](C)(C(F)(F)F)[C@H]2C)ccc(F)c1F` [Compound 402, (2R,3S,4S,5R)-N-(6-(1H-1,2,4-triazol-1-yl)pyridin-3-yl)-3-(3,4-difluoro-2-methoxyphenyl)-4,5-dimethyl-5-(trifluoromethyl)-tetrahydrofuran-2-carboxamide] was 10 to 100 nM; that for `C[C@H]1[C@@H](c2ccc(F)c(F)c2OCCN2CCOCC2)[C@H](C(=O)Nc2cc(C(N)=O)nn2C)O[C@@]1(C)C(F)(F)F` [Compound 592, 5-((2R,3S,4S,5R)-3-(3,4-difluoro-2-(2-morpholinoethoxy)phenyl)-4,5-dimethyl-5-(trifluoromethyl)tetrahydrofuran-2-carboxamido)-1-methyl-1H-pyrazole-3-carboxamide] was 10 to 100 nM.
On the same count and under the same terms, under `C=C(CO)COc1c([C@H]2[C@H](C(=O)Nc3cn(C(F)F)nc3C)O[C@@](C)(C(F)(F)F)[C@H]2C)ccc(F)c1F` [Compound 601, (2R,3S,4S,5R)-3-[3,4-difluoro-2-[2-(hydroxymethyl)allyloxy]phenyl]-N-[1-(difluoromethyl)-3-methyl-pyrazol-4-yl]-4,5-dimethyl-5-(trifluoromethyl)tetrahydrofuran-2-carboxamide] stands less than 10 nM; under `COc1c([C@H]2[C@H](C(=O)Nc3ccnc(CN(C)C)c3)O[C@@](C)(C(F)(F)F)[C@H]2C)ccc(F)c1F` [Compound 183, (2R,3S,4S,5R)-3-(3,4-difluoro-2-methoxyphenyl)-N-(2-((dimethylamino)methyl)pyridin-4-yl)-4,5-dimethyl-5-(trifluoromethyl)tetrahydrofuran-2-carboxamide], less than 10 nM.
Consider `COCc1c(F)ccc([C@@H]2[C@@H](C(=O)Nc3ccc(C(N)=O)nc3)O[C@](C)(C(F)(F)F)[C@@H]2C)c1OC` (stereo in doubt) [Compound 178, rel-5-((2S,3R,4R,5S)-3-(4-fluoro-2-methoxy-3-(methoxymethyl)phenyl)-4,5-dimethyl-5-(trifluoromethyl)tetrahydrofuran-2-carboxamido)picolinamide], for which the concentration for half-maximal inhibition (IC50) was not below 1000 nM.
The same measure, in the same setting: the value for `COCC(C)(N)c1cc(NC(=O)[C@@H]2O[C@@](C)(C(F)(F)F)[C@@H](C)[C@H]2c2ccc(F)c(F)c2OC)c(F)cn1` (single isomer, unassigned) [Compound 354, rel-(2R*,3S*,4S*,5R*)-N-(2-(2-amino-1-methoxypropan-2-yl)-5-fluoropyridin-4-yl)-3-(3,4-difluoro-2-methoxyphenyl)-4,5-dimethyl-5-(trifluoromethyl)-tetrahydrofuran-2-carboxamide] was less than 10 nM.
For the compound `COc1c([C@H]2[C@H](C(=O)Nc3cc(C(N)C(C)(C)OC)ncc3F)O[C@@](C)(C(F)(F)F)[C@H]2C)ccc(F)c1F` (single isomer, unassigned) [Compound 356, rel-(2R*,3S*,4S*,5R*)-N-(2-(1-amino-2-methoxy-2-methylpropyl)-5-fluoropyridin-4-yl)-3-(3,4-difluoro-2-methoxyphenyl)-4,5-dimethyl-5-(trifluoromethyl)-tetrahydrofuran-2-carboxamide], the IC50 is 10 to 100 nM.
The same measure, in the same setting: under `CN=S(C)(=O)c1cc(NC(=O)C2OC(C)(C(F)(F)F)C(C)C2c2ccc(F)c(C)c2OC)ccn1` (stereo not drawn) [Compound 152, N-[2-(N,S-dimethylsulfonimidoyl)-4-pyridyl]-3-(4-fluoro-2-methoxy-3-methyl-phenyl)-4,5-dimethyl-5-(trifluoromethyl)tetrahydrofuran-2-carboxamide] stands less than 10 nM; under `COC(=O)COc1c([C@H]2[C@H](C(=O)Nc3cn(C(F)F)nc3C)O[C@@](C)(C(F)(F)F)[C@H]2C)ccc(F)c1F` [Compound 602, methyl 2-[6-[(2R,3S,4S,5R)-2-[[1-(difluoromethyl)-3-methyl-pyrazol-4-yl]carbamoyl]-4,5-dimethyl-5-(trifluoromethyl)tetrahydrofuran-3-yl]-2,3-difluoro-phenoxy]acetate], less than 10 nM.
Still for that read-out and setting: the value for `COCCOc1c([C@H]2[C@H](C(=O)Nc3ccc4nncn4c3)O[C@@](C)(C(F)(F)F)[C@H]2C)ccc(F)c1F` [Compound 577, (2R,3S,4S,5R)-3-[3,4-difluoro-2-(2-methoxyethoxy)phenyl]-4,5-dimethyl-N-([1,2,4]triazolo[4,3-a]pyridin-6-yl)-5-(trifluoromethyl)tetrahydrofuran-2-carboxamide] was less than 10 nM; that for `COc1c(C2C(C(=O)Nc3ccncn3)OC(C)(C(F)(F)F)C2C)ccc(F)c1F` (single isomer, unassigned) [Compound 35, 3-(3,4-difluoro-2-methoxy-phenyl)-4,5-dimethyl-N-pyrimidin-4-yl-5-(trifluoromethyl)tetrahydrofuran-2-carboxamide] was not below 1000 nM; that for `COc1c([C@H]2[C@H](C(=O)Nc3cc4n(n3)CCOC4)O[C@@](C)(C(F)(F)F)[C@H]2C)ccc(F)c1F` [Compound 321, (2R,3S,4S,5R)-3-(3,4-difluoro-2-methoxyphenyl)-N-(6,7-dihydro-4H-pyrazolo[5,1-c][1,4]oxazin-2-yl)-4,5-dimethyl-5-(trifluoromethyl)-tetrahydrofuran-2-carboxamide] was not below 1000 nM.

In general, IC50 refers to the concentration at which inhibition is half-maximal.
